Earlier results as cited in patent publication US20020099100A1, “Treatment of dry eye syndrome” (priority 2000, published 2002).

System: dry eye syndrome
Settings: in vivo

In the case of Vitamin A, the “Underlying cellular changes that lead to dry eye syndrome” value is listed as “reverse many of the underlying cellular changes”.
